Data reported in ChEMBL document CHEMBL3885861, “Open TG-GATES”.

Species: Rattus norvegicus
Experiment: Open TG-GATES - Regimen: Single
Assay type: toxicity, organism-based, Sprague-Dawley
Parameters: regimen Single, gender Male, age 6 weeks
Details: in vivo, po, 150 mg/kg, route gavage, dose level High; for APTT / Bas / Eos / Fbg / Hb / Ht / Lym / MCH / MCHC / MCV / Mono / Neu / PT / Plat / RBC / Ret / WBC: tissue Blood; for KIDNEY_L / KIDNEY_R / KIDNEY_TOTAL: tissue Kidney; for LIVER: tissue Liver; for A/G / ALP / ALT / AST / BUN / CRE / Ca / Cl / DBIL / GLC / IP / K / LDH / Na / PL / RALB / TBIL / TC / TG / TP / gamma-GTP: tissue Plasma

Work on `CN(C)CCC=C1c2ccccc2CCc2ccccc21` [AMITRIPTYLINE] yielded a TERMINAL_BW (3 h) of 193.9 g, an APTT (3 h) of 15.9 s and a Bas (3 h) of 0.2%. It also gave an Eos (3 h) of 0.4%, a Fbg (3 h) of 285.6 mg/dL and a Hb (3 h) of 13.4 g/dL. It also gave a Ht (3 h) of 41.6%, a Lym (3 h) of 75% and an MCH (3 h) of 20.9 pg. The MCHC (3 h) was 32.1%, the MCV (3 h) was 65 fL and the Mono (3 h) was 3.2%. The Neu (3 h) was 20.4%, the PT (3 h) was 16 s and the Plat (3 h) was 120.6 x10_4/uL. For the same compound, the RBC (3 h) was 641.4 x10_4/ul, the Ret (3 h) was 9.3% and the WBC (3 h) was 71.3 x10_2/uL. For the same compound, the KIDNEY_L (3 h) was 0.9 g, the KIDNEY_R (3 h) was 0.9 g and the KIDNEY_TOTAL (3 h) was 1.7 g. The LIVER (3 h) was 8.5 g, the A/G (3 h) was 0.8 and the ALP (3 h) was 1527.2 IU/L. It also gave an ALT (3 h) of 53.2 IU/L, an AST (3 h) of 74.6 IU/L and a BUN (3 h) of 7.8 mg/dL. The CRE (3 h) was 0.2 mg/dL, the Ca (3 h) was 10.9 mg/dL and the Cl (3 h) was 107.4 meq/L. The DBIL (3 h) was 0.006 mg/dL, the GLC (3 h) was 188 mg/dL and the IP (3 h) was 9.9 mg/dL. For the same compound, the K (3 h) was 4.3 meq/L, the LDH (3 h) was 67.4 IU/L and the Na (3 h) was 145.6 meq/L. The PL (3 h) was 138.8 mg/dL, the RALB (3 h) was 2.5 g/dL and the TBIL (3 h) was 0.058 mg/dL. The TC (3 h) was 77 mg/dL, the TG (3 h) was 40.6 mg/dL and the TP (3 h) was 5.5 g/dL. It also gave a gamma-GTP (3 h) of 0.8 IU/L, a TERMINAL_BW (6 h) of 191.7 g and an APTT (6 h) of 16.4 s. For the same compound, the Bas (6 h) was 0%, the Eos (6 h) was 0.6% and the Fbg (6 h) was 273.8 mg/dL. It also gave a Hb (6 h) of 12.7 g/dL, a Ht (6 h) of 39.3% and a Lym (6 h) of 74%. For the same compound, the MCH (6 h) was 20.9 pg, the MCHC (6 h) was 32.3% and the MCV (6 h) was 64.6 fL. The Mono (6 h) was 3.2%, the Neu (6 h) was 21.2% and the PT (6 h) was 15.7 s. It also gave a Plat (6 h) of 123.7 x10_4/uL, an RBC (6 h) of 610.2 x10_4/ul and a Ret (6 h) of 9.3%. The WBC (6 h) was 89.4 x10_2/uL, the KIDNEY_L (6 h) was 0.8 g and the KIDNEY_R (6 h) was 0.8 g. It also gave a KIDNEY_TOTAL (6 h) of 1.6 g, an LIVER (6 h) of 7.8 g and an A/G (6 h) of 0.9. For the same compound, the ALP (6 h) was 1508.6 IU/L, the ALT (6 h) was 50.4 IU/L and the AST (6 h) was 71 IU/L. For the same compound, the BUN (6 h) was 7.4 mg/dL, the CRE (6 h) was 0.1 mg/dL and the Ca (6 h) was 10.7 mg/dL. The Cl (6 h) was 108.2 meq/L, the DBIL (6 h) was 0.004 mg/dL and the GLC (6 h) was 179.6 mg/dL. For the same compound, the IP (6 h) was 9.9 mg/dL, the K (6 h) was 4.4 meq/L and the LDH (6 h) was 57.4 IU/L. For the same compound, the Na (6 h) was 143.4 meq/L, the PL (6 h) was 149.6 mg/dL and the RALB (6 h) was 2.5 g/dL. The TBIL (6 h) was 0.058 mg/dL, the TC (6 h) was 85.6 mg/dL and the TG (6 h) was 28.8 mg/dL. For the same compound, the TP (6 h) was 5.4 g/dL, the gamma-GTP (6 h) was 0.6 IU/L and the TERMINAL_BW (9 h) was 193.2 g. For the same compound, the APTT (9 h) was 15.6 s, the Bas (9 h) was 0% and the Eos (9 h) was 0.8%. For the same compound, the Fbg (9 h) was 305.8 mg/dL, the Hb (9 h) was 13.1 g/dL and the Ht (9 h) was 40.5%. For the same compound, the Lym (9 h) was 65.4%, the MCH (9 h) was 21 pg and the MCHC (9 h) was 32.4%. It also gave an MCV (9 h) of 64.8 fL, a Mono (9 h) of 2.6% and a Neu (9 h) of 30.2%. It also gave a PT (9 h) of 15.6 s, a Plat (9 h) of 125.8 x10_4/uL and an RBC (9 h) of 625.2 x10_4/ul. For the same compound, the Ret (9 h) was 9.1%, the WBC (9 h) was 70.1 x10_2/uL and the KIDNEY_L (9 h) was 0.8 g. The KIDNEY_R (9 h) was 0.8 g, the KIDNEY_TOTAL (9 h) was 1.7 g and the LIVER (9 h) was 7.7 g. It also gave an A/G (9 h) of 0.8, an ALP (9 h) of 1542.6 IU/L and an ALT (9 h) of 44.8 IU/L. It also gave an AST (9 h) of 68.6 IU/L, a BUN (9 h) of 7 mg/dL and a CRE (9 h) of 0.1 mg/dL. The Ca (9 h) was 10.8 mg/dL, the Cl (9 h) was 107 meq/L and the DBIL (9 h) was 0.01 mg/dL. The GLC (9 h) was 193.4 mg/dL, the IP (9 h) was 10.7 mg/dL and the K (9 h) was 4.1 meq/L. It also gave an LDH (9 h) of 82.4 IU/L, a Na (9 h) of 143.4 meq/L and a PL (9 h) of 142 mg/dL. It also gave an RALB (9 h) of 2.5 g/dL, a TBIL (9 h) of 0.06 mg/dL and a TC (9 h) of 80.8 mg/dL. For the same compound, the TG (9 h) was 42.2 mg/dL, the TP (9 h) was 5.5 g/dL and the gamma-GTP (9 h) was 1 IU/L. For the same compound, the TERMINAL_BW (24 h) was 191.9 g, the APTT (24 h) was 16.6 s and the Bas (24 h) was 0.2%. It also gave an Eos (24 h) of 1.2%, a Fbg (24 h) of 277.4 mg/dL and a Hb (24 h) of 13.6 g/dL. For the same compound, the Ht (24 h) was 41.4%, the Lym (24 h) was 80.4% and the MCH (24 h) was 20.9 pg. The MCHC (24 h) was 32.8%, the MCV (24 h) was 63.7 fL and the Mono (24 h) was 3%. The Neu (24 h) was 14.6%, the PT (24 h) was 17 s and the Plat (24 h) was 123.6 x10_4/uL. It also gave an RBC (24 h) of 649.6 x10_4/ul, a Ret (24 h) of 8.1% and a WBC (24 h) of 79.1 x10_2/uL. The KIDNEY_L (24 h) was 0.9 g, the KIDNEY_R (24 h) was 0.9 g and the KIDNEY_TOTAL (24 h) was 1.8 g. The LIVER (24 h) was 7.6 g, the A/G (24 h) was 0.8 and the ALP (24 h) was 1505.6 IU/L. It also gave an ALT (24 h) of 40.4 IU/L, an AST (24 h) of 63 IU/L and a BUN (24 h) of 13.8 mg/dL. The CRE (24 h) was 0.2 mg/dL, the Ca (24 h) was 10.9 mg/dL and the Cl (24 h) was 105 meq/L. The DBIL (24 h) was 0.016 mg/dL, the GLC (24 h) was 182.6 mg/dL and the IP (24 h) was 8.7 mg/dL. For the same compound, the K (24 h) was 4.4 meq/L, the LDH (24 h) was 58 IU/L and the Na (24 h) was 142.2 meq/L. It also gave a PL (24 h) of 133 mg/dL, an RALB (24 h) of 2.5 g/dL and a TBIL (24 h) of 0.062 mg/dL. For the same compound, the TC (24 h) was 78.8 mg/dL, the TG (24 h) was 47.8 mg/dL and the TP (24 h) was 5.6 g/dL. For the same compound, the gamma-GTP (24 h) was 1 IU/L.
